Results: paper PMC12058161, “The plant matrix of Artemisia annua L. for the treatment of malaria: Pharmacodynamic and pharmacokinetic studies” (PLOS One, 2025)
Values joined by “and” are separate entries in the source; they are usually repeats but may differ in a detail not shown here. Equal entries are not always repeated. Where two headings read alike, the source gives them in different places.

Tests used:
[1] = test system: Plasmodium yoelii (P. yoelii); experiment: Peters' four-day inhibition method, P. yoelii murine malaria model; assay type: in vivo, ICR mice; conditions: individual mice
Description: (§1) In vivo evaluation of antimalarial activity was performed using the classical Peters’ four-day inhibition method. A murine malaria model was constructed by intraperitoneal injection of 5.00 × 10^7 Plasmodium yoelii (P. yoelii)- or Plasmodium berghei (P. berghei)-infected erythrocytes. […] Mice were gavaged once 4 hours after infection with medicated soybean oil or the test drug (gavage standard was 0.20 mL/10 g), and the drug was administered orally for 4 consecutive days. Four hours after the last dose, blood was collected from the tail tip of the mice to make a thin blood smear. The smear was air-dried, fixed in methanol, stained with Giemsa for 30 minutes, then rinsed with distilled water, air-dried at room temperature, and visualized for malaria infection under a microscope (OLYMPUS BX43) at 100x oil immersion. The inhibition ratio (%) for each group was calculated using the following equations:
(§2) Inhibitionratio(%)=(infectionratiocontrolgroup−infectionratiotreatmentgroup)/infectionratiocontrolgroup×100

[2] = test system: Plasmodium berghei (P. berghei); experiment: Peters' four-day inhibition method, P. berghei murine malaria model; assay type: in vivo, ICR mice; conditions: individual mice
Description: as §1, §2

[3] = test system: Caco-2 cells; experiment: Cytotoxicity in Caco-2 cells, CCK-8 assay; assay type: cell-based, human; conditions: for Cell survival rate%: mean; for cck-8 mean (survival fraction): mean of 6
Outline: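 Caco-2 cells, pre-grown 48 h, were exposed to compounds for 48 h at 37 °C with 0.05% v/v DMSO final. Viability was measured by CCK-8 (2 h, absorbance 450 nm) relative to negative-control cells.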

[4] = Stability of the five compounds in SD rat plasma (QC samples, UHPLC-ESI-MS/MS); assay type: in vitro ADME; conditions: for 3 freeze-thaw cycles mean ± SD / 7 days at -80°C mean ± SD / Room temperature 24h mean ± SD: SD rat plasma QC sample; for stability, Accuracy (measured versus nominal concentration) / stability, mean ± SD (measured concentration): SD rat plasma, n=5
[5] = male, Sprague Dawley, rat, in vivo
Description: (§3) Blood samples were centrifuged at 3500 rpm for 5 min at 4°C. All plasma samples were then stored at -80°C until analysis.
(§4) All samples were stored in a refrigerator at -80°C and thawed at room temperature before processing. A 50 μL aliquot of plasma was added with 5 μL of the standard solution (or acetonitrile) and 100 μL of internal standard solution in turn, vortexed and mixed, then sonicated for 3 min, centrifuged at 14000 rpm for 10 min at low temperature. The supernatant was transferred to an autosampler vial and analyzed by UHPLC-ESI-MS/MS.
(§5) The mobile phase consisted of 0.1% formic acid solution (A) and acetonitrile (B).
(§6) The ESI ionization source was used and detected in MRM mode.
(§7) All data were presented as mean ± SD. Pharmacokinetic parameters including half-life (t1/2), maximum plasma time (Tmax) and concentration (Cmax), area under concentration-time curve (AUC0-t and AUC0-∞), clearance (CL), steady-state volume of distribution (Vz), and mean residence time (MRT) were analyzed by non-compartmental method using DAS Version 2.0 (Chinese Pharmacological Society, Beijing, China). […] The data were analyzed by Student’s t-test for two groups and one-way analysis of variance for multiple groups; p < 0.05 was considered statistically significant.

[6] = in vivo; conditions: male, Sprague Dawley, rat, po; for MRT last: MRT(0-t); for MRT inf: MRT(0-∞)
Description: as §3, §4, §5, §6, §7

[7] = Pharmacokinetic study in rats after oral administration (UHPLC-ESI-MS/MS of plasma); conditions: for half-life: male, Sprague Dawley, rat, in vivo, po
Description: as §3, §4, §5, §6, §7

[8] = Caco-2, concentration 10 μmol/L
[9] = Caco-2, concentration 20 μmol/L
[10] = Caco-2, concentration 40 μmol/L
[11] = Caco-2, concentration 80 μmol/L
[12] = nominal 40 ng/mL, 3 freeze-thaw cycles
[13] = nominal 40 ng/mL, 7 days at -80°C
[14] = nominal 1000 ng/mL, 3 freeze-thaw cycles
[15] = nominal 1000 ng/mL, 7 days at -80°C
[16] = nominal 5000 ng/mL, 3 freeze-thaw cycles
[17] = nominal 5000 ng/mL, 7 days at -80°C
[18] = nominal 40 ng/mL, Room temperature 24h
[19] = nominal 1000 ng/mL, Room temperature 24h
[20] = nominal 5000 ng/mL, Room temperature 24h

SMILES: C[C@@H]1CC[C@H]2[C@@H](C)C(=O)O[C@@H]3O[C@@]4(C)CC[C@@H]1[C@]32OO4 [ART, Artemisinin, reference compound]
- parasitemia% ([1]; 5.68 mg/kg): 70.2912% and 67.0337% and 68.4147% and 69.5326% and 69.0526%
- parasitemia% ([1]; 11.368 mg/kg): 34.1852% and 49.4174% and 42.0754% and 41.1875% and 34.5379%
- parasitemia% ([1]; 22.736 mg/kg): 1.979% and 6.804% and 2.98% and 0.248% and 3.003%
- parasitemia% ([2]; 5.68 mg/kg): 73.4143% and 71.7174% and 72.6074% and 72.7168% and 72.6183%
- parasitemia% ([2]; 11.368 mg/kg): 41.4175% and 45.3752% and 36.8615% and 43.5062% and 35.724%
- parasitemia% ([2]; 22.736 mg/kg): 2.697% and 7.338% and 4.202% and 2.082% and 5.536%
- Cell survival rate%, single replicate ([3]; Caco-2, 5μmol/L): 82.52% and 83.77% and 87.9% and 78.48% and 85.79% and 77.82%
- Cell survival rate%, single replicate ([3]; Caco-2, 10μmol/L): 91.57% and 89.14% and 82.1% and 68.6% and 78.83% and 84.29%
- Cell survival rate%, single replicate ([3]; Caco-2, 20μmol/L): 80.46% and 80.92% and 80.32% and 81.46% and 82.88% and 85.89%
- Cell survival rate%, single replicate ([3]; Caco-2, 40μmol/L): 70.44% and 87.86% and 77.89% and 75.6% and 92.55% and 87.29%
- Cell survival rate%, single replicate ([3]; Caco-2, 80μmol/L): 82.12% and 82.82% and 84.32% and 77.9% and 76.8% and 84.01%
- cck-8 cell survival as fraction, single replicate ([3]; Caco-2, concentration 5 μmol/L): 0.8252 and 0.8377 and 0.879 and 0.7848 and 0.8579 and 0.7782
- Cell survival rate% ([3]; Caco-2, concentration 5 μmol/L): 82.71%
- cck-8 mean (survival fraction) ([3]; Caco-2, concentration 5 μmol/L): 0.827
- cck-8 cell survival as fraction, single replicate [3, 8]: 0.9157 and 0.8914 and 0.821 and 0.686 and 0.7883 and 0.8429
- Cell survival rate% [3, 8]: 82.42%
- cck-8 mean (survival fraction) [3, 8]: 0.824
- cck-8 cell survival as fraction, single replicate [3, 9]: 0.8046 and 0.8092 and 0.8032 and 0.8146 and 0.8288 and 0.8589
- Cell survival rate% [3, 9]: 81.99%
- cck-8 mean (survival fraction) [3, 9]: 0.820
- cck-8 cell survival as fraction, single replicate [3, 10]: 0.7044 and 0.8786 and 0.7789 and 0.756 and 0.9255 and 0.8729
- Cell survival rate% [3, 10]: 81.94%
- cck-8 mean (survival fraction) [3, 10]: 0.819
- cck-8 cell survival as fraction, single replicate [3, 11]: 0.8212 and 0.8282 and 0.8432 and 0.779 and 0.768 and 0.8401
- Cell survival rate% [3, 11]: 81.33%
- cck-8 mean (survival fraction) [3, 11]: 0.813
- Stability in plasma, measured concentration (mean ± SD) ([4]; 3 freeze-thaw cycles, QC concentration 40 ng/mL): 38.5 ± 2.35 ng/mL
- Stability in plasma, measured concentration (mean ± SD) ([4]; 3 freeze-thaw cycles, QC concentration 1000 ng/mL): 1053 ± 29.9 ng/mL
- Stability in plasma, measured concentration (mean ± SD) ([4]; 3 freeze-thaw cycles, QC concentration 5000 ng/mL): 4629 ± 113 ng/mL
- Stability in plasma, measured concentration (mean ± SD) ([4]; 7 days at -80°C, QC concentration 40 ng/mL): 40.3 ± 0.80 ng/mL
- Stability in plasma, measured concentration (mean ± SD) ([4]; 7 days at -80°C, QC concentration 1000 ng/mL): 1051 ± 29.5 ng/mL
- Stability in plasma, measured concentration (mean ± SD) ([4]; 7 days at -80°C, QC concentration 5000 ng/mL): 4673 ± 65.9 ng/mL
- Stability, measured concentration, mean ± SD ([4]; QC sample 40 ng/mL, 3 freeze-thaw cycles): 38.5 ± 2.35 ng/mL
- Stability, measured concentration, mean ± SD ([4]; QC sample 40 ng/mL, 7 days at -80°C): 40.3 ± 0.80 ng/mL
- Stability, measured concentration, mean ± SD ([4]; QC sample 40 ng/mL, Room temperature 24h): 41.1 ± 1.49 ng/mL
- Stability, measured concentration, mean ± SD ([4]; QC sample 1000 ng/mL, 3 freeze-thaw cycles): 1053 ± 29.9 ng/mL
- Stability, measured concentration, mean ± SD ([4]; QC sample 1000 ng/mL, 7 days at -80°C): 1051 ± 29.5 ng/mL
- Stability, measured concentration, mean ± SD ([4]; QC sample 1000 ng/mL, Room temperature 24h): 1070 ± 40.9 ng/mL
- Stability, measured concentration, mean ± SD ([4]; QC sample 5000 ng/mL, 3 freeze-thaw cycles): 4629 ± 113 ng/mL
- Stability, measured concentration, mean ± SD ([4]; QC sample 5000 ng/mL, 7 days at -80°C): 4673 ± 65.9 ng/mL
- Stability, measured concentration, mean ± SD ([4]; QC sample 5000 ng/mL, Room temperature 24h): 5229 ± 418 ng/mL
- Stability in plasma, measured concentration (mean ± SD) ([4]; Room temperature 24h, QC concentration 40 ng/mL): 41.1 ± 1.49 ng/mL
- Stability in plasma, measured concentration (mean ± SD) ([4]; Room temperature 24h, QC concentration 1000 ng/mL): 1070 ± 40.9 ng/mL
- Stability in plasma, measured concentration (mean ± SD) ([4]; Room temperature 24h, QC concentration 5000 ng/mL): 5229 ± 418 ng/mL
- 3 freeze-thaw cycles mean ± SD [4, 12]: 38.5 ± 2.35 ng/mL
- 7 days at -80°C mean ± SD [4, 13]: 40.3 ± 0.80 ng/mL
- Room temperature 24h mean ± SD ([4]; nominal 40 ng/mL): 41.1 ± 1.49 ng/mL
- 3 freeze-thaw cycles mean ± SD [4, 14]: 1053 ± 29.9 ng/mL
- 7 days at -80°C mean ± SD [4, 15]: 1051 ± 29.5 ng/mL
- Room temperature 24h mean ± SD ([4]; nominal 1000 ng/mL): 1070 ± 40.9 ng/mL
- 3 freeze-thaw cycles mean ± SD [4, 16]: 4629 ± 113 ng/mL
- 7 days at -80°C mean ± SD [4, 17]: 4673 ± 65.9 ng/mL
- Room temperature 24h mean ± SD ([4]; nominal 5000 ng/mL): 5229 ± 418 ng/mL
- stability, Accuracy (measured versus nominal concentration) [4, 12]: 96.14%
- stability, mean ± SD (measured concentration) [4, 12]: 38.5 ± 2.35 ng/mL and 38.46 ng/mL
- stability, Accuracy (measured versus nominal concentration) [4, 13]: 100.80%
- stability, mean ± SD (measured concentration) [4, 13]: 40.3 ± 0.80 ng/mL and 40.32 ng/mL
- stability, Accuracy (measured versus nominal concentration) [4, 18]: 102.70%
- stability, mean ± SD (measured concentration) [4, 18]: 41.1 ± 1.49 ng/mL and 41.08 ng/mL
- stability, Accuracy (measured versus nominal concentration) [4, 14]: 105.28%
- stability, mean ± SD (measured concentration) [4, 14]: 1053 ± 29.9 ng/mL and 1052.79 ng/mL
- stability, Accuracy (measured versus nominal concentration) [4, 15]: 105.14%
- stability, mean ± SD (measured concentration) [4, 15]: 1051 ± 29.5 ng/mL and 1051.42 ng/mL
- stability, Accuracy (measured versus nominal concentration) [4, 19]: 106.95%
- stability, mean ± SD (measured concentration) [4, 19]: 1070 ± 40.9 ng/mL and 1069.53 ng/mL
- stability, Accuracy (measured versus nominal concentration) [4, 16]: 92.59%
- stability, mean ± SD (measured concentration) [4, 16]: 4629 ± 113 ng/mL and 4629.47 ng/mL
- stability, Accuracy (measured versus nominal concentration) [4, 17]: 93.45%
- stability, mean ± SD (measured concentration) [4, 17]: 4673 ± 65.9 ng/mL and 4672.51 ng/mL
- stability, Accuracy (measured versus nominal concentration) [4, 20]: 104.57%
- stability, mean ± SD (measured concentration) [4, 20]: 5229 ± 418 ng/mL and 5228.53 ng/mL
- plasma concentration (plasma concentration-time curve) ([5]; 0.08 h): 180.137
- plasma concentration (plasma concentration-time curve) ([5]; 0.5 h): 247.263
- plasma concentration (plasma concentration-time curve) ([5]; 1 h): 173.84
- plasma concentration (plasma concentration-time curve) ([5]; 1.5 h): 81.963
- plasma concentration (plasma concentration-time curve) ([5]; 2 h): 51.011
- plasma concentration (plasma concentration-time curve) ([5]; 3 h): 33.992
- plasma concentration (plasma concentration-time curve) ([5]; 4 h): 27.897
- Vz ([5]; po, 100 mg/kg): 0.08 ± 0.03 L
- CL ([5]; po, 352 mg/kg): 0.032 ± 0.018 L/h
- Vz ([5]; po, 352 mg/kg): 0.061 ± 0.008 L
- AUC(0-inf) ([6]; 100 mg/kg): 418 ± 133 ng·h/mL
- AUC(0-t) ([6]; 100 mg/kg): 386 ± 128 ng·h/mL
- MRT last ([6]; 100 mg/kg): 1.18 ± 0.255 h
- MRT inf ([6]; 100 mg/kg): 1.67 ± 0.333 h
- AUC(0-inf) ([6]; 352 mg/kg): 816 ± 383 ng·h/mL
- AUC(0-t) ([6]; 352 mg/kg): 763 ± 345 ng·h/mL
- Cmax ([6]; 352 mg/kg, Cmax): 513 ± 186 ng/mL
- MRT last ([6]; 352 mg/kg): 1.71 ± 0.513 h
- MRT inf ([6]; 352 mg/kg): 2.54 ± 0.785 h
- Tmax ([6]; 352 mg/kg, Tmax): 0.388 ± 0.328 h
- half-life ([7]; 100 mg/kg, t1/2, rat plasma, ART after gavage of pure ART (PU) 100 mg/kg, n = 6): 1.1 ± 0.335 h
- half-life ([7]; 100 mg/kg, t1/2z, pure artemisinin, rat plasma, DAS 2.0, Mean of 6 rats): 1.1 h
- half-life ([7]; 352 mg/kg, t1/2, rat plasma, component after gavage of nACTs 352 mg/kg, n = 6): 1.76 ± 0.938 h
- Cz(尾点回归值) ([7]; pure artemisinin, rat plasma, DAS 2.0, individual rats No1-No6): 14.237 mg/L
